Measured values taken from ChEMBL document CHEMBL5537128, “Discovery of LWY713 as a potent and selective FLT3 PROTAC degrader with in vivo activity against acute myeloid leukemia” (Eur J Med Chem, 2024).
pIC50: −log10 of the molar value. Calls of active or inactive are those of the source. The rule behind the calls is not given here.

Assays:
MV4-11 [1] = experiment: Induction of apoptosis in human MV4-11 cells assessed as early apoptotic cells at 10 nM incubated for 48 hrs by Annexin V/7-AAD staining based flow cytometric analysis relative to control; format: functional
[2] = target: T1, Protein cereblon/Receptor-type tyrosine-protein kinase FLT3 (Homo sapiens, UniProt P36888+Q96SW2); experiment: PROTAC activity at CRBN/FLT3 in human MV4-11 cells harboring FLT3-ITD mutation assessed as reduction in FLT3 phosphorylation incubated for 24 hrs by immunoblotting analysis; format: cell-based; details: dose 0.08-50 nM
Target sequence in this assay (P36888 27-993 limits assumed): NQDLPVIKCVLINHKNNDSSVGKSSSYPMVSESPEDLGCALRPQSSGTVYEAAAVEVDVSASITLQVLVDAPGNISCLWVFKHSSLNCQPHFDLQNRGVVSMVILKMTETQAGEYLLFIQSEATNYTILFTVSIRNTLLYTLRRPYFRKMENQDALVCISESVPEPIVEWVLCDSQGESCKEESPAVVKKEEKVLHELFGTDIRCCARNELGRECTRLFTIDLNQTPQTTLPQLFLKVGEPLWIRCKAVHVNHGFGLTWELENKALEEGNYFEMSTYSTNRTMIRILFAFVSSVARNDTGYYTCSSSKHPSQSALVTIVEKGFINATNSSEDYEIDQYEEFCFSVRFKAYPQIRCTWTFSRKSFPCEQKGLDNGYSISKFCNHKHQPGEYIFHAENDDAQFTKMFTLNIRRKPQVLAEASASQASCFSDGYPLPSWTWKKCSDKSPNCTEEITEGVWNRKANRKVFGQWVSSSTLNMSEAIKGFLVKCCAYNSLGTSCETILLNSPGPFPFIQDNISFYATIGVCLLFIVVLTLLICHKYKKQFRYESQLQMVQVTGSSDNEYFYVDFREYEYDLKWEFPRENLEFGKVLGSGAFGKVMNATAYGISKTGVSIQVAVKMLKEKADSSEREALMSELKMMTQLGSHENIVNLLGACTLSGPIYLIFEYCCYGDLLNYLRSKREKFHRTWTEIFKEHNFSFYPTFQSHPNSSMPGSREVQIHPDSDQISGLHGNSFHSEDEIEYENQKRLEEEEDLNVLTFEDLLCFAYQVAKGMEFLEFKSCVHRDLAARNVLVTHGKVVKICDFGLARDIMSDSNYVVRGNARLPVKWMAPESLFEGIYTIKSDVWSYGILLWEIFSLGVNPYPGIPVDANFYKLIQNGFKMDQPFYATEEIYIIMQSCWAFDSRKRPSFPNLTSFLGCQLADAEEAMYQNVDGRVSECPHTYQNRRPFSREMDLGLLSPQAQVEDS
Target sequence in this assay (Q96SW2 whole entry partner): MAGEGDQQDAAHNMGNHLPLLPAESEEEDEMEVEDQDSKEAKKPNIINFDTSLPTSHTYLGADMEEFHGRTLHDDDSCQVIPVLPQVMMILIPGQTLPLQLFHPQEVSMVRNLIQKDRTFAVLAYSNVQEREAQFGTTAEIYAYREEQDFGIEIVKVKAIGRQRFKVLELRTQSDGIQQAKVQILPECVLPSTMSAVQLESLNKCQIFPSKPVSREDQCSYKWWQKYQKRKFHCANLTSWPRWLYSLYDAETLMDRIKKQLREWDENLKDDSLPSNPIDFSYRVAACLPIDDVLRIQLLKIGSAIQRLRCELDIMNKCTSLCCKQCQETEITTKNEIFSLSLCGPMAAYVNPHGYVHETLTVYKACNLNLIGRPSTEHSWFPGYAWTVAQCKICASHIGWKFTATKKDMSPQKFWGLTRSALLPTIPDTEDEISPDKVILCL

MV4-11 [3] = experiment: Induction of apoptosis in human MV4-11 cells assessed as late apoptotic cells at 2 nM incubated for 48 hrs by Annexin V/7-AAD staining based flow cytometric analysis relative to control; format: functional
MV4-11 [4] = experiment: Induction of apoptosis in human MV4-11 cells assessed as late apoptotic cells at 10 nM incubated for 48 hrs by Annexin V/7-AAD staining based flow cytometric analysis relative to control; format: functional
MV4-11 [5] = experiment: Induction of cell cycle arrest at G0/G1 phase in human MV4-11 cells assessed as G0/G1 phase cells at 0.4 nM incubated for 24 hrs by PI staining based flow cytometric analysis relative to control; format: functional
[6] = target: T1, Protein cereblon/Receptor-type tyrosine-protein kinase FLT3; experiment: PROTAC activity at CRBN/FLT3 in human MV4-11 cells harboring FLT3 ITD mutation assessed as induction of FLT3 degradation at 1 nM incubated for 6 hrs in presence of MLN4924 by immunoblotting analysis; format: cell-based
Target sequence in this assay (P36888 27-993 limits assumed): as the sequence (P36888 27-993 limits assumed) above
Target sequence in this assay (Q96SW2 whole entry partner): as the sequence (Q96SW2 whole entry partner) above

MV4-11 [7] = experiment: Potency index, ratio of gilteritinib IC50 to test compound IC50 for antiproliferative activity against human MV4-11 cells assessed as inhibition of cell proliferation incubated for 72 hrs by CCK8 assay; format: functional
MV4-11 [8] = experiment: Induction of apoptosis in human MV4-11 cells assessed as increase in cleaved caspase 3 level at 2 to 10 nM incubated for 48 hrs by immunoblotting analysis; format: functional, cell-based; details: dose 2-10 nM
[9] = target: Tyrosine-protein kinase receptor UFO (Homo sapiens) (UniProt P30530); experiment: Induction of AXL degradation in human MDA-MB-231 cells at 1 to 10 nM measured upto 20 hrs by immunoblotting analysis; format: cell-based; details: dose 1-10 nM
Tyrosine-protein kinase receptor UFO (Homo sapiens), sequence (P30530 whole entry): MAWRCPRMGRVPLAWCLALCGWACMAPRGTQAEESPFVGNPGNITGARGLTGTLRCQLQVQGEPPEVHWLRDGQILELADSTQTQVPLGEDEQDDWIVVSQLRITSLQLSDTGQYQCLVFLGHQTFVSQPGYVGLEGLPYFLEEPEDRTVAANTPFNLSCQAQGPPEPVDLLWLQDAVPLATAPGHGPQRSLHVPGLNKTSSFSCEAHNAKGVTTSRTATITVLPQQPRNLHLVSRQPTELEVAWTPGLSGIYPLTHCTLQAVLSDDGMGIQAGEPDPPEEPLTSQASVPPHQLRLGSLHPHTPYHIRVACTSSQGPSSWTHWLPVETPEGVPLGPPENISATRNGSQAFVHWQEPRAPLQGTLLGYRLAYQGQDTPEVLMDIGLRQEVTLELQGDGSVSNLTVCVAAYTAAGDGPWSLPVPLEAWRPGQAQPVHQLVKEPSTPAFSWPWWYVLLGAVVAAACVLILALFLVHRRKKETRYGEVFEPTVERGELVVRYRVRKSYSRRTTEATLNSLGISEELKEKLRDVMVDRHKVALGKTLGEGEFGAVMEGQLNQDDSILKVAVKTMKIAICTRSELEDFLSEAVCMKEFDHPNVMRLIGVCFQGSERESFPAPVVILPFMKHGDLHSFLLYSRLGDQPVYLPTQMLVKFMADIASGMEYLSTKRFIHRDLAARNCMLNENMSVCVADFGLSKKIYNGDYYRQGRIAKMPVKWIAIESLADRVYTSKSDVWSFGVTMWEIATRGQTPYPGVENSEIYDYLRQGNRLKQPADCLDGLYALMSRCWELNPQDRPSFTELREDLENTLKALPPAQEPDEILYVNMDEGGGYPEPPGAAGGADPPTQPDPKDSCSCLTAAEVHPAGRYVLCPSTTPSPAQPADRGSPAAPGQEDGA

MV4-11 [10] = experiment: Induction of cell cycle arrest at G0/G1 phase in human MV4-11 cells assessed as G2/M phase cells at 0.4 nM incubated for 24 hrs by PI staining based flow cytometric analysis relative to control; format: functional
MV4-11 [11] = experiment: Induction of apoptosis in human MV4-11 cells assessed as necrotic cells at 10 nM incubated for 48 hrs by Annexin V/7-AAD staining based flow cytometric analysis relative to control; format: functional
MV4-11 [12] = experiment: Induction of apoptosis in human MV4-11 cells assessed as early apoptotic cells at 2 nM incubated for 48 hrs by Annexin V/7-AAD staining based flow cytometric analysis relative to control; format: functional
[13] = target: T1, Protein cereblon/Receptor-type tyrosine-protein kinase FLT3; experiment: PROTAC activity at CRBN/FLT3 in human MV4-11 cells harboring FLT3 ITD mutation assessed as induction of FLT3 degradation at 1 nM incubated for 6 hrs in presence of lenalidomide by Immunoblotting analysis; format: cell-based
Target sequence in this assay (P36888 27-993 limits assumed): as the sequence (P36888 27-993 limits assumed) above
Target sequence in this assay (Q96SW2 whole entry partner): as the sequence (Q96SW2 whole entry partner) above

MV4-11 [14] = experiment: Antitumor activity against human MV4-11 cells xenografted in NOD/SCID mouse assessed as reduction in tumor volume at 6 mg/kg, ip administered once a day for 21 days; format: functional, organism-based; details: time 21.0 day
[15] = target: T1, Protein cereblon/Receptor-type tyrosine-protein kinase FLT3; experiment: PROTAC activity at CRBN/FLT3 in human MV4-11 cells harboring FLT3-ITD mutation assessed as induction of FLT3 degradation by measuring maximal efficacy incubated for 24 hrs by immunoblotting analysis relative to control; format: cell-based
Target sequence in this assay (P36888 27-993 limits assumed): as the sequence (P36888 27-993 limits assumed) above
Target sequence in this assay (Q96SW2 whole entry partner): as the sequence (Q96SW2 whole entry partner) above

[16] = target: T1, Protein cereblon/Receptor-type tyrosine-protein kinase FLT3; experiment: PROTAC activity at CRBN/FLT3 in human MV4-11 cells harboring FLT3-ITD mutation assessed as induction of FLT3 degradation at 1 nM incubated for 2 to 20 hrs by Immunoblotting analysis; format: cell-based; details: time 2-20 hrs
Target sequence in this assay (P36888 27-993 limits assumed): as the sequence (P36888 27-993 limits assumed) above
Target sequence in this assay (Q96SW2 whole entry partner): as the sequence (Q96SW2 whole entry partner) above

[17] = Toxicity in NOD/SCID mouse xenografted with human MV4-11 cells assessed as weight loss at 6 mg/kg, ip administered once daily for 21 days; format: organism-based; details: in vivo, 504 h, time 21 day
[18] = target: T1, Protein cereblon/Receptor-type tyrosine-protein kinase FLT3; experiment: PROTAC activity at CRBN/FLT3 in human MV4-11 cells harboring FLT3 ITD mutation assessed as induction of FLT3 degradation at 1 nM incubated for 6 hrs in presence of MG132 by immunoblotting analysis; format: cell-based
Target sequence in this assay (P36888 27-993 limits assumed): as the sequence (P36888 27-993 limits assumed) above
Target sequence in this assay (Q96SW2 whole entry partner): as the sequence (Q96SW2 whole entry partner) above

MV4-11 [19] = experiment: Inhibition of ERK phosphorylation in human MV4-11 cells incubated for 24 hrs by immunoblotting analysis; format: cell-based; details: dose 0.08-50 nM
[20] = target: T1, Protein cereblon/Receptor-type tyrosine-protein kinase FLT3; experiment: PROTAC activity at CRBN/FLT3 in human MV4-11 cells harboring FLT3 ITD mutation assessed as induction of FLT3 degradation at 1 nM incubated for 6 hrs in presence of bafilomycin by immunoblotting analysis; format: cell-based
[21] = target: T1, Protein cereblon/Receptor-type tyrosine-protein kinase FLT3; experiment: PROTAC activity at CRBN/FLT3 in human MV4-11 cells harboring FLT3 ITD mutation assessed as induction of FLT3 degradation at 1 nM incubated for 6 hrs in presence of gilteritinib by immunoblotting analysis; format: cell-based
MV4-11 [22] = experiment: Induction of cell cycle arrest at G0/G1 phase in human MV4-11 cells assessed as G2/M phase cells at 2 nM incubated for 24 hrs by PI staining based flow cytometric analysis relative to control; format: functional
[23] = target: T1, Protein cereblon/Receptor-type tyrosine-protein kinase FLT3; experiment: PROTAC activity at CRBN/FLT3 in human MV4-11 cells harboring FLT3-ITD mutation assessed as induction of FLT3 degradation incubated for 24 hrs by immunoblotting analysis; format: cell-based
MV4-11 [24] = experiment: Induction of cell cycle arrest at G0/G1 phase in human MV4-11 cells assessed as S phase cells at 0.4 nM incubated for 24 hrs by PI staining based flow cytometric analysis relative to control; format: functional
[25] = target: T1, Protein cereblon/Receptor-type tyrosine-protein kinase FLT3; experiment: PROTAC activity at CRBN/FLT3 in human MV4-11 cells harboring FLT3 ITD mutation assessed as induction of FLT3 degradation at 1 nM measured upto 12 hrs in presence of cycloheximide by immunoblotting analysis; format: cell-based
MV4-11 [26] = experiment: Induction of cell cycle arrest at G0/G1 phase in human MV4-11 cells assessed as G0/G1 phase cells at 2 nM incubated for 24 hrs by PI staining based flow cytometric analysis relative to control; format: functional
[27] = target: Leukocyte tyrosine kinase receptor (Homo sapiens) (UniProt P29376); experiment: Induction of LTK degradation in human Raji cells at 1 to 10 nM measured upto 24 hrs by immunoblotting analysis; format: cell-based; details: dose 1-10 nM
Leukocyte tyrosine kinase receptor (Homo sapiens), sequence (P29376 whole entry): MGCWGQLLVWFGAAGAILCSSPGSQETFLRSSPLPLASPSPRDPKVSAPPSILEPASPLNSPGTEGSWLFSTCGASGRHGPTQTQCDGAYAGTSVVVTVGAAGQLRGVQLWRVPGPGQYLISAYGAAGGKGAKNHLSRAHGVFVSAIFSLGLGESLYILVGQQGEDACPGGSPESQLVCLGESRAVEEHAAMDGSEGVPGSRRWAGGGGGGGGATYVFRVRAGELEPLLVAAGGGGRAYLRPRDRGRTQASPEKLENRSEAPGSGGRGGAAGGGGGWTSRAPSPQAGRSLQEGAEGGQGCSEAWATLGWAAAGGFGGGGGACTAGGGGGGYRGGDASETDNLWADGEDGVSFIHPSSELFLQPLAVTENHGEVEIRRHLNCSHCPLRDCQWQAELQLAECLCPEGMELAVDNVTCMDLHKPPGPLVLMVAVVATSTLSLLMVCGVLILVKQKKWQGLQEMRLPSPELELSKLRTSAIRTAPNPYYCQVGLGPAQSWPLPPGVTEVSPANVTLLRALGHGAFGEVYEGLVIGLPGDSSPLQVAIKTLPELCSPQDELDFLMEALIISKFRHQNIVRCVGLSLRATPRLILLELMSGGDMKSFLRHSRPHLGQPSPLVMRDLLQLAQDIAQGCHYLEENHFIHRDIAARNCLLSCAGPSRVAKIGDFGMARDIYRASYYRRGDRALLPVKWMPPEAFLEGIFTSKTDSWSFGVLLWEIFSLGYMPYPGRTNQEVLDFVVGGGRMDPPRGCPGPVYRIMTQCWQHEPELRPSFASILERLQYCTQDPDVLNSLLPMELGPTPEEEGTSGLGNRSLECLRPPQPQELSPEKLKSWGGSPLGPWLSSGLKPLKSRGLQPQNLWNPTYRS

MV4-11 [28] = experiment: Antiproliferative activity against human MV4-11 cells assessed as inhibition of cell proliferation incubated for 72 hrs by CCK8 assay; format: functional, cell-based; details: MV4-11, 72 h
MV4-11 [29] = experiment: Inhibition of JAK/STAT5 signaling pathway in human MV4-11 cells assessed as reduction in STAT5 phosphorylation incubated for 24 hrs by immunoblotting analysis; format: cell-based; details: dose 0.08-50 nM
MV4-11 [30] = experiment: Induction of cell cycle arrest at G0/G1 phase in human MV4-11 cells assessed as sub-G0/G1 phase cells at 2 nM incubated for 24 hrs by PI staining based flow cytometric analysis relative to control; format: functional
MV4-11 [31] = experiment: Induction of apoptosis in human MV4-11 cells incubated for 48 hrs by Annexin V/7-AAD staining based flow cytometric analysis; format: functional, cell-based; details: dose 0.016-10 nM
MV4-11 [32] = experiment: Inhibition of PI3K/AKT signaling pathway in human MV4-11 cells assessed as reduction in AKT phosphorylation incubated for 24 hrs by immunoblotting analysis; format: cell-based; details: dose 0.08-50 nM
[33] = target: ALK tyrosine kinase receptor (Homo sapiens) (UniProt Q9UM73); experiment: Induction of ALK degradation in human Raji cells at 1 to 10 nM measured upto 24 hrs by immunoblotting analysis; format: cell-based; details: dose 1-10 nM
MV4-11 [34] = experiment: Induction of cell cycle arrest at G0/G1 phase in human MV4-11 cells assessed as sub-G0/G1 phase cells at 0.4 nM incubated for 24 hrs by PI staining based flow cytometric analysis relative to control; format: functional
MV4-11 [35] = experiment: Induction of apoptosis in human MV4-11 cells assessed as increase in cleaved PARP level at 2 to 10 nM incubated for 48 hrs by immunoblotting analysis; format: functional, cell-based; details: dose 2-10 nM
MV4-11 [36] = experiment: Induction of cell cycle arrest at G0/G1 phase in human MV4-11 cells assessed as S phase cells at 2 nM incubated for 24 hrs by PI staining based flow cytometric analysis relative to control; format: functional

## CCc1nc(C(N)=O)c(Nc2ccc(N3CCC(N4CCN(C(=O)COc5cccc6c5CN(C5CCC(=O)NC5=O)C6=O)CC4)CC3)c(OC)c2)nc1NC1CCOCC1 (configuration not stated)
MV4-11 [1]
  Activity: 3.4%
[2]
  Activity: Active
MV4-11 [3]
  Activity: 24.8%
MV4-11 [4]
  Activity: 33.1%
MV4-11 [5]
  Activity: 79.8%
[6]
  Activity: inactive
MV4-11 [7]
  Ratio IC50: 4.6
MV4-11 [8]
  Activity: Active
[9]
  Activity: inactive
MV4-11 [10]
  Activity: 12.1%
MV4-11 [11]
  Activity: 15.9%
MV4-11 [12]
  Activity: 2.8%
[13]
  Activity: inactive
MV4-11 [14]
  Activity: Active
[15]
  Emax: 94.8%
[16]
  Activity: Active
[17]
  Activity: Non-Toxic
[18]
  Activity: inactive
MV4-11 [19]
  inhibition: Dose-Dependent Effect
[20]
  Activity: Active
[21]
  Activity: inactive
MV4-11 [22]
  Activity: 8.1%
[23]
  Activity: Dose-Dependent Effect
  DC50: 0.64 nM
MV4-11 [24]
  Activity: 5.6%
[25]
  Activity: Active
MV4-11 [26]
  Activity: 82.1%
[27]
  Activity: inactive
MV4-11 [28]
  pIC50: 8.82
MV4-11 [29]
  inhibition: Dose-Dependent Effect
MV4-11 [30]
  Activity: 6.8%
MV4-11 [31]
  Activity: Dose-Dependent Effect
MV4-11 [32]
  inhibition: Dose-Dependent Effect
[33]
  Activity: inactive
MV4-11 [34]
  Activity: 2.4%
MV4-11 [35]
  Activity: Active
MV4-11 [36]
  Activity: 2.9%
